Results: patent US20220040129A1, “TREATMENT OF HYPERAMMONEMIA IN PATIENTS WITH RENAL INSUFFICIENCY” (RECORDATI S.p.A., priority 2019, published 2022)
Read-outs that look alike come from different tables or passages of the source.

Assay: CARIV-A-001 Part B: cross-over IV infusion over 2 hours vs oral tablet 100 mg/kg in healthy subjects
Format: in vivo, human
Set-up: CL, Max / CL, Min: unit not given here
Conditions: for HL (Half-life), Max / HL (Half-life), Min: in h; for AUCinf, Max / AUCinf, Min / aucL, Max / aucL, Min: in ng·h/mL; for AUC(0-inf) / clearance / Cmax / half-life / CL/F / bioavailability / AUC(0-t) / AUC: plasma; for AUC: read-out: aucL, Median
Description: The levels of CGA in plasma and urine were analysed using a fully validated method, which included LC-MS/MS analysis. The PK data were analysed based on a non-compartmental model. A model-based approach was implemented for the characterization of the PK properties of the IV formulation in order to estimate the level of PK exposure after different doses administered with different duration of infusion. The model outcomes provided rationales for supporting decision-making through the dose escalation process. The PK parameters were determined using SAS (version 9.3), and modelling of the PK data was performed using NONMEM (version 7.3, ICON Solutions). PART A: Mono-Centre, Randomized, Successive Groups, Double-Blind, Placebo-Controlled Study in Healthy Male and Female Subjects
Part B was a randomized, double-blind, cross-over, two-sequence study. It was conducted in 12 healthy male and female subjects.
In two treatment periods, separated by a washout of at least two weeks, subjects received a single administration of the study medication in fasting conditions, either as an IV loading dose infusion of Rec0/0491 over 2 hours (started with 6 mg/kg/h then reduced to 4.0 mg/kg/h), or an oral tablet administration of Carbaglu® (100 mg/kg).
Blood samples for PK measurements were collected at 19 timepoints for the IV administration and 17 timepoints for the oral administration. This included a sample prior to intake of the study medication and the period ranging from 20 minutes to 72 hours following the initiation of the IV infusion, and the period ranging from 30 minutes to 72 hours following oral intake. Urine was also collected for PK measurements, at the following intervals relative to the time of administration of the study medication: 0-6, 6-12, 12-24, 24-36 and 36-48 hours.
The PK analysis of Carbaglu was conducted on all subjects showing quantifiable plasma levels using standard non-compartmental approach.

[1] = both sexes, human, oral, OR, 100 mg/kg, N 12
[2] = both sexes, human, IV, 8 mg/kg, N 10

For `NC(=O)N[C@@H](CCC(=O)O)C(=O)O` [carglumic acid, N-carbamoyl-L-glutamic acid], the “Absolute bioavailability F of the oral vs IV formulation, GeoMean” value (12 subjects) was 9.57%, the “Equivalence of exposure, oral tablet 100 mg/kg vs IV infusion over 2 hours” value (90% confidence limits vs reference limits of 0.8 and 1.25) was “non-equivalent level of exposure” and the “CL, Max” value (IV, 8 mg/kg, N 10) was 0.472. For the same molecule, the “CL, Min” value (IV, 8 mg/kg, N 10) was 0.225, the Cmax, Max (IV, 8 mg/kg, N 10) was 11700 ng/mL and the Cmax, Min (IV, 8 mg/kg, N 10) was 5400 ng/mL. For the same molecule, the “HL (Half-life), Max” value (IV, 8 mg/kg, N 10) was 52.95, the “HL (Half-life), Min” value (IV, 8 mg/kg, N 10) was 22.85 and the “AUCinf, Max” value (IV, 8 mg/kg, N 10) was 35564.90. The “AUCinf, Min” value (IV, 8 mg/kg, N 10) was 16949.96, the “aucL, Max” value (IV, 8 mg/kg, N 10) was 34579.31 and the “aucL, Min” value (IV, 8 mg/kg, N 10) was 15713.03. For the same molecule, the “CL, Max” value (IV, 12 mg/kg, N 2) was 0.267, the “CL, Min” value (IV, 12 mg/kg, N 2) was 0.192 and the Cmax, Max (IV, 12 mg/kg, N 2) was 23500 ng/mL. For the same molecule, the Cmax, Min (IV, 12 mg/kg, N 2) was 19400 ng/mL, the “HL (Half-life), Max” value (IV, 12 mg/kg, N 2) was 42.59 and the “HL (Half-life), Min” value (IV, 12 mg/kg, N 2) was 27.23. For the same molecule, the “AUCinf, Max” value (IV, 12 mg/kg, N 2) was 62628.03, the “AUCinf, Min” value (IV, 12 mg/kg, N 2) was 45001.41 and the “aucL, Max” value (IV, 12 mg/kg, N 2) was 61017.40. The “aucL, Min” value (IV, 12 mg/kg, N 2) was 43281.03, the Cmax, Max (OR, 100 mg/kg, N 12) was 5620 ng/mL and the Cmax, Min (OR, 100 mg/kg, N 12) was 1950 ng/mL. The “HL (Half-life), Max” value (OR, 100 mg/kg, N 12) was 35.31, the “HL (Half-life), Min” value (OR, 100 mg/kg, N 12) was 17.56 and the “AUCinf, Max” value (OR, 100 mg/kg, N 12) was 45696.37. For the same molecule, the “AUCinf, Min” value (OR, 100 mg/kg, N 12) was 21852.27, the “aucL, Max” value (OR, 100 mg/kg, N 12) was 44250.17 and the “aucL, Min” value (OR, 100 mg/kg, N 12) was 20030.59. For the same molecule, the “Percent of dose excreted in urine” value (after IV administration) was 82%, the “Percent of dose excreted in urine” value (after oral administration) was 7.5% and the CL renal (both sexes, human, plasma and urine, after IV administration, read-out: Renal clearance (converted)) was about 5 mL/min/kg. It also gave an AUC(0-inf) (both sexes, human, iv, 8 mg/kg, IV, 8 mg/kg, N 10, read-out: AUCinf, Mean) of 24500 ng·h/mL, an AUC(0-inf) (both sexes, human, iv, 8 mg/kg, IV, 8 mg/kg, N 10, read-out: AUCinf, Median) of 23700 ng·h/mL and a clearance (both sexes, human, iv, 8 mg/kg, IV, 8 mg/kg, N 10, read-out: CL, Mean (converted)) of 5.65 mL/min/kg. For the same molecule, the clearance (both sexes, human, iv, 8 mg/kg, IV, 8 mg/kg, N 10, read-out: CL, Median (converted)) was 5.63 mL/min/kg, the Cmax (both sexes, human, iv, 8 mg/kg, IV, 8 mg/kg, N 10, read-out: Cmax, Mean) was 8610 ng/mL and the Cmax (both sexes, human, iv, 8 mg/kg, IV, 8 mg/kg, N 10, read-out: Cmax, Median) was 8760 ng/mL. The half-life (both sexes, human, iv, 8 mg/kg, IV, 8 mg/kg, N 10, read-out: HL (Half-life), Mean (converted)) was 30.6 h, the half-life (both sexes, human, iv, 8 mg/kg, IV, 8 mg/kg, N 10, read-out: HL (Half-life), Median (converted)) was 28.8 h and the AUC(0-inf) (both sexes, human, iv, 12 mg/kg, IV, 12 mg/kg, N 2, read-out: AUCinf, Mean) was 53800 ng·h/mL. For the same molecule, the AUC(0-inf) (both sexes, human, iv, 12 mg/kg, IV, 12 mg/kg, N 2, read-out: AUCinf, Median) was 53800 ng·h/mL, the clearance (both sexes, human, iv, 12 mg/kg, IV, 12 mg/kg, N 2, read-out: CL, Mean (converted)) was 3.82 mL/min/kg and the clearance (both sexes, human, iv, 12 mg/kg, IV, 12 mg/kg, N 2, read-out: CL, Median (converted)) was 3.82 mL/min/kg. The Cmax (both sexes, human, iv, 12 mg/kg, IV, 12 mg/kg, N 2, read-out: Cmax, Mean) was 21400 ng/mL, the Cmax (both sexes, human, iv, 12 mg/kg, IV, 12 mg/kg, N 2, read-out: Cmax, Median) was 21400 ng/mL and the half-life (both sexes, human, iv, 12 mg/kg, IV, 12 mg/kg, N 2, read-out: HL (Half-life), Mean (converted)) was 34.9 h. The half-life (both sexes, human, iv, 12 mg/kg, IV, 12 mg/kg, N 2, read-out: HL (Half-life), Median (converted)) was 34.9 h, the clearance (both sexes, human, iv, after IV administration, read-out: Total clearance (converted)) was 5.17 mL/min/kg and the AUC(0-inf) (both sexes, human, oral, 100 mg/kg, OR, 100 mg/kg, N 12, read-out: AUCinf, Mean) was 31400 ng·h/mL. The AUC(0-inf) (both sexes, human, oral, 100 mg/kg, OR, 100 mg/kg, N 12, read-out: AUCinf, Median) was 30200 ng·h/mL, the CL/F (both sexes, human, oral, 100 mg/kg, OR, 100 mg/kg, N 12, read-out: CL/F, Mean (converted)) was 55.6 mL/min/kg and the CL/F (both sexes, human, oral, 100 mg/kg, OR, 100 mg/kg, N 12, read-out: CL/F, Median (converted)) was 55.2 mL/min/kg. It also gave a Cmax (both sexes, human, oral, 100 mg/kg, OR, 100 mg/kg, N 12, read-out: Cmax, Mean) of 3280 ng/mL, a Cmax (both sexes, human, oral, 100 mg/kg, OR, 100 mg/kg, N 12, read-out: Cmax, Median) of 2940 ng/mL and a half-life (both sexes, human, oral, 100 mg/kg, OR, 100 mg/kg, N 12, read-out: HL (Half-life), Mean (converted)) of 24.6 h. It also gave a half-life (both sexes, human, oral, 100 mg/kg, OR, 100 mg/kg, N 12, read-out: HL (Half-life), Median (converted)) of 23.7 h, a bioavailability (both sexes, human, oral, 100 mg/kg, 12 subjects, read-out: Absolute bioavailability, 90% confidence intervals) of 8.3 to 11% and an AUC(0-t) [1] of 29800 ng·h/mL. The AUC [1] was 29100 ng·h/mL, the bioavailability (both sexes, human, po, 100 mg/kg, read-out: Oral bioavailability) was about 10% and the AUC(0-t) [2] was 22900 ng·h/mL. For the same molecule, the AUC [2] was 22000 ng·h/mL and the AUC(0-t) (both sexes, human, IV, 12 mg/kg, N 2) was 52100 ng·h/mL.
